Columns and labels:
CCKA = molecular target: T1, CCKA (Cavia porcellus, UniProt Q63931); assay: CCKA radioligand binding assay in guinea-pig pancreas membranes ([125I]-CCK8(S)); details: PD134,308 present, 150 minutes at 21±3°; for Ki: read-out: CCKA pKi (converted)
T1 construct: The pancreatata were homogenised in 40 ml ice-cold HEPES buffer using a polytron; from tissue; host or cells: pancreas membranes of male Dunkin Hartley guinea-pigs
T1 sequence (Q63931 1-430): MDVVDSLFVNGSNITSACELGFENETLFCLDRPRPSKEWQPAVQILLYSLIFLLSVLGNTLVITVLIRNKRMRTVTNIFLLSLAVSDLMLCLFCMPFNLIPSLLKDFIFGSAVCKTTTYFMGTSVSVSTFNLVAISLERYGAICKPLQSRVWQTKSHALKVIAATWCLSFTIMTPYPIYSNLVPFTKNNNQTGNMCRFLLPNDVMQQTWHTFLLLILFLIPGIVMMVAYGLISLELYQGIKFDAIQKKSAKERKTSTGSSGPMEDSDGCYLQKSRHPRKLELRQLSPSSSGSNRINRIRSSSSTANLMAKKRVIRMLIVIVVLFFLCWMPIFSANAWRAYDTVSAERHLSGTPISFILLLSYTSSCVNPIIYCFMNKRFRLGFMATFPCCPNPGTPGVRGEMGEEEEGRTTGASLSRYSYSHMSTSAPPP
Outline: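 Male guinea-pig pancreas membranes (1 mg/ml wet tissue in HEPES pH 7.2, suspension containing 0.375 μM PD134,308) were incubated 150 min at 21±3° with [125I]-CCK8(S) ([…] added solution) and competitor. Non-specific binding used 100 nM L-364,718 (added solution). Bound radioligand was measured by GF/B filtration and gamma counting.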

CCKB receptor = molecular target: T2, CCKB receptor (Mus musculus, UniProt P56481); assay: CCKB receptor radioligand binding assay in mouse cortical membranes ([125I]-CCK8S); details: [125I]-CCK8S 200 pM, 150 min at 21±3°; for Ki: read-out: CCKB pKi (converted)
T2 construct: The cortex was dissected, weighed and homogenised in 40ml ice-cold buffer; tissue Charles River (supplier of the CD1 mice); host or cells: cerebral cortex membranes of male CD1 mice
T2 sequence (P56481 1-453): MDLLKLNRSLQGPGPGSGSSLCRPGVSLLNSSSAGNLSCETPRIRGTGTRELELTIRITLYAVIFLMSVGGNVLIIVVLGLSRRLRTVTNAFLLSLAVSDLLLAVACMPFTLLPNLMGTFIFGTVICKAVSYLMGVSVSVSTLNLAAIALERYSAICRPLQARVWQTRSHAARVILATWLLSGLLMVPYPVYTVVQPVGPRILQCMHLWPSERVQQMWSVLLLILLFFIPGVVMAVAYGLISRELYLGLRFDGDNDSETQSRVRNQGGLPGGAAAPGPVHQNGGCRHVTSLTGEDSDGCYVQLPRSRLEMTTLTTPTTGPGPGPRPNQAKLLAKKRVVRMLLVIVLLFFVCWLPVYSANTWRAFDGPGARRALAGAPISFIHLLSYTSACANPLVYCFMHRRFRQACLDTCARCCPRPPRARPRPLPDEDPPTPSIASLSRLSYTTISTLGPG
Outline: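 Cortical membranes from male CD1 mice in HEPES buffer (pH 7.2; NaCl, KCl, MgCl2, EDTA, bacitracin) were incubated with competing compound and [125I]-CCK8S (added as a 200 pM solution) for 150 min at 21±3°. Non-specific binding was defined with L-365,260. Bound tracer was separated by GF/B filtration and counted by gamma counting.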

gastrin = molecular target: T3, gastrin (Rattus norvegicus, UniProt P30553); assay: gastrin antagonist activity in an immature rat stomach assay (pentagastrin-stimulated acid secretion); details: cumulative pentagastrin dose-response curves after 60 min with drug; for Kb: read-out: Gastrin pKB (converted)
T3 construct: The stomach was lowered into a jacketed organ bath containing 40 ml of buffered solution; from tissue; host or cells: isolated perfused whole stomach of immature rats (ca. 21 days old)
T3 sequence (P30553 1-452): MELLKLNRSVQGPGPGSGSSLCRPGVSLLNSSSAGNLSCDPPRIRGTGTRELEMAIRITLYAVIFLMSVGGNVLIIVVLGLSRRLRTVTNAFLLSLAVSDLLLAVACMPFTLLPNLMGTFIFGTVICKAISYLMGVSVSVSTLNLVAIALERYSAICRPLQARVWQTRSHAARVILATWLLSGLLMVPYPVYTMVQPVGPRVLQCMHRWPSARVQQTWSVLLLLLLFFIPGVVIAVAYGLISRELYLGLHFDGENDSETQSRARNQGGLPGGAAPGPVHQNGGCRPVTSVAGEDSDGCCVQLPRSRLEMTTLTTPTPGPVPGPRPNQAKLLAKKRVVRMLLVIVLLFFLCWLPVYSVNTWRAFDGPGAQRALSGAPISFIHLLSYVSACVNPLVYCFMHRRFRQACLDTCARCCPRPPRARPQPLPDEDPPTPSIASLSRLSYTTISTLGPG
Outline: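 Isolated lumen-perfused immature rat stomach (33-50 g, ca. 21 days) in 37° organ bath with 3×10^-8 M 5-methylfurmethide; acid secretion read by pH electrode in perfusate. Compound added to serosal bath after 120 min stabilisation; cumulative pentagastrin dose-response curves begun 60 min later and analysed by the Black et al. method.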

Compound	CCKA pKi (CCKA)	CCKB pKi (CCKB receptor)	Gastrin pKB (gastrin)	Ki (CCKA)	Ki (CCKB receptor)	Kb (gastrin)
5-(1S-(3,5-dicarboxyphenylaminocarbonyl)-2-(4-hydroxyphenyl)e thylaminocarbonyl)-6-(1-adamantanemethylaminocarbonyl)-indole and regioisomer with substituents at positions 5 and 6 reversed [Example 30]	5.2	7.6	9.1			
O=C(O)c1cc(NC(=O)[C@H](Cc2ccccc2)NC(=O)C2Cc3ccccc3CN2C(=O)NCC23CC4CC(CC(C4)C2)C3)cc(C(=O)O)c1 (stereo partly drawn) [Example 57, 3-(1S-(3,5-dicarboxyphenylaminocarbonyl)-2-phenylethylaminocarbonyl)-2-(1-adamantanemethylaminocarbonyl)-1,2,3,4-tetrahydroisoquinoline]				2000 nM	20 nM	20 nM
5-(1S-(3,5-dicarboxyphenylaminocarbonyl)-2-phenylethylaminocarbonyl)-6-(1-adamantanemethylaminocarbonyl)-2,3-dihydro-benzofuran [Example 123]	6.3	7.9	8.5			
Nc1cccc2cc(C(=O)N[C@@H](Cc3ccccc3)C(=O)Nc3cc(C(=O)O)cc(C(=O)O)c3)c(C(=O)NCC34CC5CC(CC(C5)C3)C4)cc12 [Example 115, 2-(1S-(3,5-dicarboxyphenylaminocarbonyl)-2-phenylethylaminocarbonyl)-3-(1-adamantanemethylaminocarbonyl)-5-aminonaphthalene]	5.6	7.6	8.2			
3-(1S-(3,5-dicarboxyphenylaminocarbonyl)-2-phenyl ethylaminocarbonyl)-2-(1-adamantanemethylaminocarbonyl)-5-aminonaphthalene [Example 116]	5.6	8.5	9.0			
5-(2R-(1R-carboxyethylaminocarbonyl)pyrrolidinocarbonyl)-6-(1-adamantanemethylaminocarbonyl)-indole [Example 89]	5.1	6.2	6.8			
5-(1R-(3,5-dicarboxyphenylaminocarbonyl)-ethylaminocarbonyl)-6-(cycloheptanemethylaminocarbonyl)-indole and regioisomer with substituents at positions 5 and 6 reversed [Example 59]	5.1	6.9	7.5			
5-(1S-(3,5-dicarboxyphenylaminocarbonyl)-2-(4-aminophenyl)ethylaminocarbonyl)-6-(1-adamantanemethylaminocarbonyl)-indole and regioisomer with substituents at positions 5 and 6 reversed [Example 31]	5.5	7.9	8.9			
5-(1S-(3,5-dicarboxyphenylaminocarbonyl)-2-phenylethylaminocarbonyl)-6-(2,2-dimethylpropylaminocarbonyl)-indole and regioisomer with substituents at positions 5 and 6 reversed [Example 46]	5.1	6.7	7.1			
O=C(O)c1cc(NC(=O)[C@H](Cc2ccccc2)NC(=O)c2cc3cc[nH]c3cc2C(=O)NCC2CN3CCC2CC3)cc(C(=O)O)c1 (stereo partly drawn) [Example 108, 5-(1S-(3,5-dicarboxyphenylaminocarbonyl)-2-phenylethylaminocarbonyl)-6-(1-azabicyclo[2.2.2]oct-3-ylmethylaminocarbonyl)-indole]				> 10000 nM	1260 nM	794 nM
5-(1S-(trans 3,4-dicarboxypyrrolidinocarbonyl)-2-phenylethylaminocarbonyl)-6-(1-adamantanemethylaminocarbonyl)-indole and regioisomer with substituents at positions 5 and 6 reversed [Example 50]	6.1	6.6	6.9			
C[C@H](NC(=O)c1cc2cc[nH]c2cc1C(=O)NCC12CC3CC(CC(C3)C1)C2)C(=O)Nc1cc(C(=O)O)cc(C(=O)O)c1 [Example 47, 5-(1S-(3,5-dicarboxyphenylaminocarbonyl)-ethylaminocarbonyl)-6-(1-adamantanemethylaminocarbonyl)-indole]				6310 nM	158 nM	5.01 nM
C[C@H](NC(=O)c1cc2[nH]cnc2cc1C(=O)NCC1CCCCCC1)C(=O)Nc1cc(C(=O)O)cc(C(=O)O)c1 [Example 72, 5-(1S-(3,5-dicarboxyphenylaminocarbonyl)-ethylaminocarbonyl)-6-(cycloheptanemethylaminocarbonyl)-benzimidazole]	5.6	6.0	6.3			
O=C(NCC12CC3CC(CC(C3)C1)C2)c1cc2cc[nH]c2cc1C(=O)N[C@@H](Cc1ccccc1)C(=O)Nc1cc(-c2nn[nH]n2)cc(-c2nn[nH]n2)c1 [Example 105, 6-(1S-(3,5-ditetrazolylphenylaminocarbonyl)-2-phenylethylaminocarbonyl)-5-(1-adamantanemethylaminocarbonyl)-indole]				158 nM	5.01 nM	3.16 nM
3-(1S-(3,5-dicarboxyphenylaminocarbonyl)-2-phenylethylaminocarbonyl)-2-(1-adamantanemethylaminocarbonyl)-5-nitronaphthalene and its regioisomer with groups at positions 2 and 3 reversed [Example 55]	5.8	8.2	8.3			
C[C@H](NC(=O)c1cc2[nH]ccc2cc1C(=O)NCC12CC3CC(CC(C3)C1)C2)C(=O)Nc1cc(C(=O)O)cc(C(=O)O)c1 [Example 48, 6-(1S-(3,5-dicarboxyphenylaminocarbonyl)-ethylaminocarbonyl)-5-(1-adamantanemethylaminocarbonyl)-indole]				3160 nM	631 nM	100 nM
5-(1R-(3,5-dicarboxyphenylaminocarbonyl)-2-phenylethylaminocarbonyl)-6-(1-adamantanemethylaminocarbonyl)-indole and regioisomer with substituents at positions 5 and 6 reversed [Example 29]	5.4	8.1	9.2			

Reference: patent publication US5795907A, “Gastin and CCK receptor ligands” (James Black Foundation Limited, priority 1994, dated 1998)
